Experiment: Metabolic stability in liver S9
Type: in vitro ADME, Sprague-Dawley rat
Conditions: Sprague-Dawley, liver S9; Rat; test conc. 3 μM

Q: With `CCC(=O)N[C@H]1Cc2cccc(C(=O)O)c2OB1O` [Compound 2, (R)-2-hydroxy-3-propionamido-3,4-dihydro-2H-benzo[e][1,2]oxaborinine-8-carboxylic acid] as the compound, how does the half-life at 3 μM read?
A: > 2 h

From US12544395B2, “Combination compositions comprising a beta-lactamase inhibitor and uses thereof” (priority 2018, dated 2026)
